For 28 compounds, inhibition and IC50 results are on record in patent US9346798B2, “Dihydrobenzoxazine and tetrahydroquinoxaline sodium channel inhibitors” (AMGEN INC., priority 2012, dated 2016).

pIC50: −log10 of the molar value.

Chain of Nav 1.5 (Q14524 whole entry): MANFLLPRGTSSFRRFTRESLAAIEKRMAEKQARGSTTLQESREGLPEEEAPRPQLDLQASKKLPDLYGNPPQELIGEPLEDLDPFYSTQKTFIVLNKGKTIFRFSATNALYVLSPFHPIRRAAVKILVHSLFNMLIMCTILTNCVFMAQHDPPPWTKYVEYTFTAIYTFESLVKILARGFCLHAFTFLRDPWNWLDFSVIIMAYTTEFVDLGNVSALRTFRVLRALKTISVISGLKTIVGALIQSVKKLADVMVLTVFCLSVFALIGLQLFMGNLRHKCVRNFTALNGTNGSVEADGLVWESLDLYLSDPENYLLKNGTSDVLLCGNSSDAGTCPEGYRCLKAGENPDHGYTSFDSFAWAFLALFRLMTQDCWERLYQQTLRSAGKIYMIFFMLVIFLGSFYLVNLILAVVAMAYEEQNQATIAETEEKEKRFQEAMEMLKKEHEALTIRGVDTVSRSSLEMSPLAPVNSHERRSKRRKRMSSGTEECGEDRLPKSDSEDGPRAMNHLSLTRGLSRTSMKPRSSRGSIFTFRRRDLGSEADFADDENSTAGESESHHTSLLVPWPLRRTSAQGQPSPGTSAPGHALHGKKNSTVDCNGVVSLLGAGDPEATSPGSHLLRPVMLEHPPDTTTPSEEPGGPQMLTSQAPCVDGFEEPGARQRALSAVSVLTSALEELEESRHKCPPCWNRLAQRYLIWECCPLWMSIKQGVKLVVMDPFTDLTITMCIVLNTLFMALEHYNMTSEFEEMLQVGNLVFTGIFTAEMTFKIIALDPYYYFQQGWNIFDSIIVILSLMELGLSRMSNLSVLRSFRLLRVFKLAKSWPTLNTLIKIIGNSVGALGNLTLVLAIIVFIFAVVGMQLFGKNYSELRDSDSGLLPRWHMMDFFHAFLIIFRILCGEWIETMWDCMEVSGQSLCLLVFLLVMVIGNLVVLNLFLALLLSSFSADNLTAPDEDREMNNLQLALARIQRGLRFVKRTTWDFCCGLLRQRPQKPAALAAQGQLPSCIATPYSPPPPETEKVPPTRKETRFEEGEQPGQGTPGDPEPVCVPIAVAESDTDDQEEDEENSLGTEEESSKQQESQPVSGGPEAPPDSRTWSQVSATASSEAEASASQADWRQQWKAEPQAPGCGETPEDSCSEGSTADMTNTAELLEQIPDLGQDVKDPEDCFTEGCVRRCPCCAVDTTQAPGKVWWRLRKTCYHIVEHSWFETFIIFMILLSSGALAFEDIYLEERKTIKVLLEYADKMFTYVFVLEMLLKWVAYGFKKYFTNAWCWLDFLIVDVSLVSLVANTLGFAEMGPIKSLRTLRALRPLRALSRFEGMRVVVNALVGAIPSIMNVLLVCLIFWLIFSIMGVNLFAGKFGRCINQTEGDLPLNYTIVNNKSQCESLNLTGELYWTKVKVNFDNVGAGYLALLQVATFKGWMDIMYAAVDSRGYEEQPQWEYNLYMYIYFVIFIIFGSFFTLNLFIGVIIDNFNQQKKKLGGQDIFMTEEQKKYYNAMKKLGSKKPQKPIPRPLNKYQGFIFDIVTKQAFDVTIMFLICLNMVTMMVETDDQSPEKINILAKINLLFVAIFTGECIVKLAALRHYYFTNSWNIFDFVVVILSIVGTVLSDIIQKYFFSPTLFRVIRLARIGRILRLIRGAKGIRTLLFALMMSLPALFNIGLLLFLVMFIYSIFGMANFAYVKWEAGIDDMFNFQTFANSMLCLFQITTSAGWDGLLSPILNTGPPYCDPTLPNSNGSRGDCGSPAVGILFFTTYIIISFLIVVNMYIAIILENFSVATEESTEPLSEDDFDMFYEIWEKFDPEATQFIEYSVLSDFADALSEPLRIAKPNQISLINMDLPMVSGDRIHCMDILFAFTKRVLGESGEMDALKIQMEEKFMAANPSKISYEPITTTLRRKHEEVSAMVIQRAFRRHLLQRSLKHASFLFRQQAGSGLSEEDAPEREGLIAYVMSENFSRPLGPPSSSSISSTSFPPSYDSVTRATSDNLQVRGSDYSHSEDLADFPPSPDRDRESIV
Chain of Nav 1.7 (Q15858 whole entry): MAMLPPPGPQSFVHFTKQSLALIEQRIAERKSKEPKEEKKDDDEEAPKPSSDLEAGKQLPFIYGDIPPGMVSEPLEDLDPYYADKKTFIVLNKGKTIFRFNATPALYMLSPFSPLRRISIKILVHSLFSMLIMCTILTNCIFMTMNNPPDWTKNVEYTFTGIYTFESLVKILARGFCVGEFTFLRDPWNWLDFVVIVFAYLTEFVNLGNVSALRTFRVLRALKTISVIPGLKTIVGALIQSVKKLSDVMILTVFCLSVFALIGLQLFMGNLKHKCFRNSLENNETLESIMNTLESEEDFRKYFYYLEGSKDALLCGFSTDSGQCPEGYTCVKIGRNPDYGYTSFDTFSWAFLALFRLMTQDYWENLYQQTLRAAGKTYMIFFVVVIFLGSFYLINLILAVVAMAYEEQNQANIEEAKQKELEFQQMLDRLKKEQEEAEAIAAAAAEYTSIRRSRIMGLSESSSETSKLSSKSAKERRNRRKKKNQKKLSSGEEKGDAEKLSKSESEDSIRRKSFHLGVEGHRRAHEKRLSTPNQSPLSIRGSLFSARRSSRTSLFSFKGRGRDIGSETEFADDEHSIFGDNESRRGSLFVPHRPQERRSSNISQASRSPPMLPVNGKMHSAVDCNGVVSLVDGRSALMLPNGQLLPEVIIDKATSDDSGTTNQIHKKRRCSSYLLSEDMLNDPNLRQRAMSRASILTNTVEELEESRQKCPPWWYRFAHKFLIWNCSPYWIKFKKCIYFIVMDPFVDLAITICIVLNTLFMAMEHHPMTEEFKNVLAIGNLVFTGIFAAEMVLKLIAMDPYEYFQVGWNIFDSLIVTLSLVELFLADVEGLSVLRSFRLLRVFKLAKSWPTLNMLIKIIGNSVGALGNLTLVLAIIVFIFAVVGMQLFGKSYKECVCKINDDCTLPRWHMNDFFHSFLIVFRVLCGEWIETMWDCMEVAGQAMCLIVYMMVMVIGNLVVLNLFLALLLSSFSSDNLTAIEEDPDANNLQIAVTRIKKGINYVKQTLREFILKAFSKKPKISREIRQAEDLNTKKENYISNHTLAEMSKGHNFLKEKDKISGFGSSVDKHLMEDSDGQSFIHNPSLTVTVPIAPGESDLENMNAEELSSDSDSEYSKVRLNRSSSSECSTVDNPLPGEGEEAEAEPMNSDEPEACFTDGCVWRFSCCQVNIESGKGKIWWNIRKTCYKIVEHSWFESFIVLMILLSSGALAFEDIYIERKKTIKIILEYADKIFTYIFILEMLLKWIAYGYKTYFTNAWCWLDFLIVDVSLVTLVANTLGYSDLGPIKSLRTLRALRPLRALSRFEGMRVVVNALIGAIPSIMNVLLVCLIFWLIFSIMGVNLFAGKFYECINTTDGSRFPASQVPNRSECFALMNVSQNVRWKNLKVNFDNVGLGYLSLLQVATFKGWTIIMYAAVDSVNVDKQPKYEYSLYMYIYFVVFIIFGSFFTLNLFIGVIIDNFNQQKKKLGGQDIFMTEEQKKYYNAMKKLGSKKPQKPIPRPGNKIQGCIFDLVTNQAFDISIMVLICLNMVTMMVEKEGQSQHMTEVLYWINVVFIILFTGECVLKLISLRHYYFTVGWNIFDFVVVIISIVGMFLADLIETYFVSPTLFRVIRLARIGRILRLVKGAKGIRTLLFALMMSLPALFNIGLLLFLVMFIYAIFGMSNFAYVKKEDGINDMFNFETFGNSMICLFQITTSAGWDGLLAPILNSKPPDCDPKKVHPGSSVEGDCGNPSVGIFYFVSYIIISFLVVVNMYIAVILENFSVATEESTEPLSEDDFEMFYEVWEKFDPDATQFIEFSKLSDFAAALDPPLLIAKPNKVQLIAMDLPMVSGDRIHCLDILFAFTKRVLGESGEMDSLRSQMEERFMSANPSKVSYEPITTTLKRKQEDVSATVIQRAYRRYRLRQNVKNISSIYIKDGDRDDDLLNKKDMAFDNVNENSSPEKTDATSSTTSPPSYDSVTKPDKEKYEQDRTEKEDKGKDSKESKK

In one data set the target is Nav 1.7 (Homo sapiens (Human), UniProt Q15858). The data set can be described thus: Nav 1.7 in vitro PX assay, PatchXpress whole cell voltage clamp. The format is cell-based. Conditions: HEK293; values marked *; 4.9 μM; HEK 293 cells stably transfected with human Nav1.7; read-out: Nav 1.7 PX percent inhibition at 4.9 μM. On the procedure:
Nav 1.7 In Vitro PX Assay
HEK 293 cells stably transfected with human Nav1.7 were recorded in whole cell voltage clamp mode with the PatchXpress automated electrophysiology system (Molecular Devices, LLC, Sunnyvale, Calif.). Compound effects were measured on a partially inactivated state of the sodium channel. Cells were clamped to a holding potential yielding 20 to 50% inactivation. To elicit sodium current, channels were activated by pulsing to −10 mV for 20 msec. This voltage protocol was repeated at a rate of 0.1 Hz throughout the experiment. A single concentration of test compound was applied to cells for a duration of 3 minutes. Peak sodium current was measured at the end of the compound addition period to determine percent inhibition. Three to five cells were tested per concentration, and IC50 curves were fitted to percent inhibition as a function of concentration.
One may read the inhibition as the drop in the measured response relative to a control, in per cent. Regarding `COCC1CN(c2ccc(Cl)cc2C#N)c2ccc(S(=O)(=O)Nc3nccs3)cc2O1` (stereo not shown) [Example 251, 4-(4-chloro-2-cyanophenyl)-2-(methoxymethyl)-N-(thiazol-2-yl)-3,4-dihydro-2H-benzo[b][1,4]oxazine-7-sulfonamide], the inhibition at 4.9 µM turned out to be 27.8%.

Still in this data set, the particulars now being: HEK 293 cells stably transfected with human Nav1.7; partially inactivated state (20 to 50% inactivation).
One may read the pIC50 as −log10 of the IC50, conventionally taken in molar units. A low value points to a large IC50. In turn, `CCc1ccccc1N1CCOc2cc(S(=O)(=O)Nc3nccs3)ccc21` [Example 259, 4-(2-ethylphenyl)-N-(thiazol-2-yl)-3,4-dihydro-2H-benzo[b][1,4]oxazine-7-sulfonamide] had a pIC50 of 5.80.

Consider `COc1cc(C(F)(F)F)ccc1N1C(=O)[C@@H](C)Oc2cc(S(=O)(=O)Nc3nccs3)ccc21` [Example 265, (R)-4-(2-Methoxy-4-(Trifluoromethyl)Phenyl)-2-Methyl-3-Oxo-N-(Thiazol-2-Yl)-3,4-Dihydro-2H-Benzo[B][1,4]Oxazine-7-Sulfonamide], for which the pIC50 is 6.14.

With `COc1ccc(C(F)(F)F)cc1N1C(=O)COc2cc(S(=O)(=O)Nc3nccs3)ccc21` [Example 236, 4-(2-Methoxy-5-(Trifluoromethyl)Phenyl)-3-Oxo-N-(Thiazol-2-Yl)-3,4-Dihydro-2H-Benzo[B][1,4]Oxazine-7-Sulfonamide], the pIC50 is 6.29.

`N#Cc1cc(C(F)(F)F)ccc1N1C(=O)COc2cc(S(=O)(=O)Nc3nccs3)ccc21` [Example 234, 4-(2-Cyano-4-(Trifluoromethyl)Phenyl)-3-Oxo-N-(Thiazol-2-Yl)-3,4-Dihydro-2H-Benzo[B][1,4]Oxazine-7-Sulfonamide] had a pIC50 of 5.84.

In turn, `COc1ccc(F)cc1N1C(=O)COc2cc(S(=O)(=O)Nc3nccs3)ccc21` [Example 246, 4-(5-Fluoro-2-Methoxyphenyl)-3-Oxo-N-(Thiazol-2-Yl)-3,4-Dihydro-2H-Benzo[B][1,4]Oxazine-7-Sulfonamide] had a pIC50 of 6.27.

In turn, `COc1ccccc1N1CCOc2cc(S(=O)(=O)Nc3ncns3)ccc21` [Example 238, 4-(2-Methoxyphenyl)-N-(1,2,4-Thiadiazol-5-Yl)-3,4-Dihydro-2H-Benzo[B][1,4]Oxazine-7-Sulfonamide] gave a pIC50 of 6.87.

For the compound `COc1ccc(C#N)cc1N1CCOc2cc(S(=O)(=O)Nc3nccs3)ccc21` [Example 225, 4-(5-Cyano-2-Methoxyphenyl)-N-(Thiazol-2-Yl)-3,4-Dihydro-2H-Benzo[B][1,4]Oxazine-7-Sulfonamide], the pIC50 is 6.52.

As for `O=S(=O)(Nc1nccs1)c1ccc2c(c1)OCCN2c1ccccc1-c1ccc(O)nc1` [Example 255, 4-(2-(6-hydroxypyridin-3-yl)phenyl)-N-(thiazol-2-yl)-3,4-dihydro-2H-benzo[b][1,4]oxazine-7-sulfonamide 2,2,2-trifluoroacetate], the pIC50 is 6.01.

On to `COc1cc(C(F)(F)F)ccc1N1C(=O)COc2cc(S(=O)(=O)Nc3ncns3)ccc21` [Example 248, 4-(2-Methoxy-4-(Trifluoromethyl)Phenyl)-3-Oxo-N-(1,2,4-Thiadiazol-5-Yl)-3,4-Dihydro-2H-Benzo[B][1,4]Oxazine-7-Sulfonamide], for which the pIC50 is 6.76.

`CC(C)(O)c1ccccc1N1CCOc2cc(S(=O)(=O)Nc3nccs3)ccc21` [Example 258, 4-(2-(2-hydroxypropan-2-yl)phenyl)-N-(thiazol-2-yl)-3,4-dihydro-2H-benzo[b][1,4]oxazine-7-sulfonamide]: the pIC50 is 5.88.

In turn, `NC(=O)c1ccccc1N1CCOc2cc(S(=O)(=O)Nc3nccs3)ccc21` [Example 244, 2-(7-(N-(Thiazol-2-Yl)Sulfamoyl)-2H-Benzo[B][1,4]Oxazin-4(3H)-Yl)Benzamide] showed a pIC50 of 5.30.

Compound `N#CCOc1ccccc1N1CCOc2cc(S(=O)(=O)Nc3nccs3)ccc21` [Example 257, 4-(2-(cyanomethoxy)phenyl)-N-(thiazol-2-yl)-3,4-dihydro-2H-benzo[b][1,4]oxazine-7-sulfonamide] showed a pIC50 of 6.39.

The next data set addresses Nav 1.5 (Homo sapiens (Human), UniProt Q14524). The data set can be described thus: Nav 1.5 in vitro assay, IonWorks Quattro (IWQ) population patch-clamp. Particulars: HEK 293 cells stably transfected with Nav 1.5; 26th pulse to -20 mV. In kind it is cell-based. On the procedure: Nav 1.7 and Nav 1.5 In Vitro Assays
HEK 293 cells stably transfected with either Nav 1.7 or with Nav 1.5 were recorded in population patch-clamp mode with the IonWorks® Quattro automated electrophysiology system in accordance with the manufacturer's specifications (Molecular Devices, LLC, Sunnyvale, Calif.). Sodium channel currents were measured in response to a train of depolarizations that induced successively greater inactivation.
Cells were held at −110 mV for three seconds (Nav 1.7) or half a second (Nav 1.5) from a holding voltage of −15 mV, then put through a series of 26 pulses of 150 msec duration to −20 mV at a frequency of 5 Hz. Cells were then left unclamped for a period of 3 to 8 minutes while a single concentration of test compound was added. Cells were then reclamped and put through the same voltage protocol. Current at the end of the 26th pulse to −20 mV was subtracted from the peak current evoked by the 26th pulse to −20 mV to correct for leak current. Percent block was calculated for each concentration in duplicate, and IC50 curves were fitted to percent block as a function of concentration.
As for `O=S(=O)(Nc1nccs1)c1ccc2c(c1)OCCN2c1cc(F)ccc1F` [Example 83, 4-(2,5-Difluorophenyl)-N-(Thiazol-2-Yl)-3,4-Dihydro-2H-Benzo[B][1,4]Oxazine-7-Sulfonamide 2,2,2-Trifluoroacetate], the pIC50 was < 5.00.

Turning to `O=S(=O)(Nc1nccs1)c1ccc2c(c1)OCCN2c1ncc(Cl)cc1Cl` [Example 121, 4-(3,5-Dichloropyridin-2-yl)-N-(thiazol-2-yl)-3,4-dihydro-2H-benzo[b][1,4]oxazine-7-sulfonamide], the pIC50 was < 5.00.

Turning to `Cc1ccc(N2CCOc3cc(S(=O)(=O)Nc4nccs4)ccc32)cc1Cl` [Example 163, 4-(3-Chloro-4-Methylphenyl)-N-(Thiazol-2-Yl)-3,4-Dihydro-2H-Benzo[B][1,4]Oxazine-7-Sulfonamide 2,2,2-Trifluoroacetate], the pIC50 was 5.50.

As to `N#Cc1ccc(F)c(N2CCOc3cc(S(=O)(=O)Nc4nccs4)ccc32)c1` [Example 164, 4-(5-Cyano-2-Fluorophenyl)-N-(Thiazol-2-Yl)-3,4-Dihydro-2H-Benzo[B][1,4]Oxazine-7-Sulfonamide 2,2,2-Trifluoroacetate], the pIC50 was < 5.00.

As to `O=C1CCCc2ccc(N3CCOc4cc(S(=O)(=O)Nc5nccs5)ccc43)cc21` [Example 160, 4-(8-Oxo-5,6,7,8-Tetrahydronaphthalen-2-Yl)-N-(Thiazol-2-Yl)-3,4-Dihydro-2H-Benzo[B][1,4]Oxazine-7-Sulfonamide 2,2,2-Trifluoroacetate], the pIC50 was < 5.00.

For the compound `O=S(=O)(Nc1nccs1)c1ccc2c(c1)OCCN2c1ccc(-n2ccnc2)cc1` [Example 154, 4-(4-(1H-Imidazol-1-Yl)Phenyl)-N-(Thiazol-2-Yl)-3,4-Dihydro-2H-Benzo[B][1,4]Oxazine-7-Sulfonamide 2,2,2-Trifluoroacetate], the pIC50 is < 5.00.

As for `O=S(=O)(Nc1nccs1)c1ccc2c(c1)OCCN2c1ccccc1C(F)(F)F` [Example 157, N-(Thiazol-2-Yl)-4-(2-(Trifluoromethyl)Phenyl)-3,4-Dihydro-2H-Benzo[B][1,4]Oxazine-7-Sulfonamide 2,2,2-Trifluoroacetate], the pIC50 is < 5.00.

Regarding `CCOc1cccc(N2CCOc3cc(S(=O)(=O)Nc4nccs4)ccc32)c1` [Example 162, 4-(3-Ethoxyphenyl)-N-(Thiazol-2-Yl)-3,4-Dihydro-2H-Benzo[B][1,4]Oxazine-7-Sulfonamide 2,2,2-Trifluoroacetate], the pIC50 was < 5.00.

On to `Cc1ccc(N2CCOc3cc(S(=O)(=O)Nc4nccs4)ccc32)cc1F` [Example 82, 4-(3-Fluoro-4-Methylphenyl)-N-(Thiazol-2-Yl)-3,4-Dihydro-2H-Benzo[B][1,4]Oxazine-7-Sulfonamide 2,2,2-Trifluoroacetate], for which the pIC50 is < 5.00.

On to `N#Cc1ccc(F)cc1N1CCOc2cc(S(=O)(=O)Nc3nccs3)ccc21` [Example 188, 4-(2-Cyano-5-Fluorophenyl)-N-(Thiazol-2-Yl)-3,4-Dihydro-2H-Benzo[B][1,4]Oxazine-7-Sulfonamide], for which the pIC50 is 5.44.

As to `CN1CC=C(c2cc(C(F)(F)F)ccc2N2CCOc3cc(S(=O)(=O)Nc4ccncn4)ccc32)CC1` [Example 51, 4-(2-(1-Methyl-1,2,3,6-Tetrahydropyridin-4-Yl)-4-(Trifluoromethyl)Phenyl)-N-(Pyrimidin-4-Yl)-3,4-Dihydro-2H-Benzo[B][1,4]Oxazine-7-Sulfonamide], the pIC50 was < 5.00.

Turning to `O=S(=O)(Nc1nccs1)c1ccc2c(c1)OCCN2c1cccc2scnc12` [Example 72, 4-(Benzo[D]Thiazol-4-Yl)-N-(Thiazol-2-Yl)-3,4-Dihydro-2H-Benzo[B][1,4]Oxazine-7-Sulfonamide 2,2,2-Trifluoroacetate], the pIC50 was < 5.00.

Turning to `COc1cccc(N2CCOc3cc(S(=O)(=O)Nc4nccs4)ccc32)c1` [Example 77, 4-(3-Methoxyphenyl)-N-(Thiazol-2-Yl)-3,4-Dihydro-2H-Benzo[B][1,4]Oxazine-7-Sulfonamide 2,2,2-Trifluoroacetate], the pIC50 is < 5.00.

`O=S(=O)(Nc1nccs1)c1ccc2c(c1)OCCN2c1cccc(Cl)c1Cl` [Example 171, 4-(2,3-Dichlorophenyl)-N-(Thiazol-2-Yl)-3,4-Dihydro-2H-Benzo[B][1,4]Oxazine-7-Sulfonamide 2,2,2-Trifluoroacetate]: the pIC50 was 5.19.

For `O=S(=O)(Nc1nccs1)c1ccc2c(c1)OCCN2c1ccc(F)cc1F` [Example 176, 4-(2,4-Difluorophenyl)-N-(Thiazol-2-Yl)-3,4-Dihydro-2H-Benzo[B][1,4]Oxazine-7-Sulfonamide 2,2,2-Trifluoroacetate], the pIC50 is < 5.00.
